Reference: paper PMC3983396 (Journal of medicinal chemistry, 2014)

Legend:
[1] = Water solubility of salts; type: physicochemical; settings: compared to the salts of monocyclic amines (7m and 7s)
[2] = tested on: AKT phosphorylation in MDA-MB-231 cells; assay: AKT phosphorylation; type: cell-based, human; settings: MDA-MB-231, increasing concentrations, 24 h
CDKs 1, 2, 5, 8 and 9 = assay: In vitro kinase assay, other CDKs; type: biochemical; settings: data not shown
[3] = tested on: PARP cleavage in MCF-7 and MDA-MB-231 cells; assay: PARP cleavage, Western blot; type: cell-based, human; settings: 24 h, 1 μM
[4] = tested on: MDA-MB-231 tumor xenograft; assay: Orthotopic nude mouse assay; type: in vivo
[5] = tested on: MCF-7 and MDA-MB-231 cells; assay: Flow cytometry after prolonged treatment; type: cell-based, human; settings: greater than 48 h
CD-1 female mice = settings: CD-1, mouse, in vivo
tumor cells = assay: Induction of apoptosis of tumor cells; type: cell-based
human tumor cell lines = assay: Growth arrest of a panel of human tumor cell lines; type: cell-based; settings: read-out: GI50 values, growth arrest of most tumor cell lines
CDK6 = settings: read-out: IC50 CDK6; cited from earlier work
CDK4 = settings: read-out: IC50 CDK4; cited from earlier work

CN1CCN(c2ccc(Nc3ncc4cc(C#N)c(=O)n(C5CCCC5)c4n3)nc2)CC1 [7v, 8-Cyclopentyl-2-[5-(4-methyl-piperazin-1-yl)-pyridin-2-ylamino]-7-oxo-7,8-dihydro-pyrido[2,3-d]pyrimidine-6-carbonitrile]
water solubility of salts [1]: enhanced water solubility

CN1CCN(c2ccc(Nc3ncc4cc(C#N)c(=O)n(C5CCCC5)c4n3)cc2)CC1 [7x, 8-Cyclopentyl-2-[4-(4-methyl-piperazin-1-yl)-phenylamino]-7-oxo-7,8-dihydro-pyrido[2,3-d]pyrimidine-6-carbonitrile]
phosphorylation of AKT (Ser473) [2]: inhibits the phosphorylation of AKT | inhibitory activity against CDKs 1, 2, 5, 8 and 9 (CDKs 1, 2, 5, 8 and 9): little inhibitory activity | PARP cleavage (~89 kDa cleaved polypeptide) [3]: dose-dependent accumulation of the ~89 kDa cleaved PARP polypeptide | tumor growth ([4]; 50 mg/kg Q2D IP, 21 day period): dose-dependent inhibition of tumor growth | signs of toxicity in treated groups ([4]; 50 mg/kg Q2D IP, body weights): No overt signs of toxicity | tumor weight at the end-point of the study ([4]; data not shown): decrease in tumor weight | sub-G1 population (apoptosis) [5]: appearance of a sub-G1 population | mice surviving more than 10 days after injection (CD-1 female mice): 100% | concentration inducing apoptosis of tumor cells (tumor cells): 30 to 100 nM | GI50 (human tumor cell lines): 25 to 2000 nM

N#Cc1cc2cnc(N3CCN(c4ccc(C(F)(F)F)cn4)CC3)nc2n(C2CCCC2)c1=O [7w, 8-Cyclopentyl-7-oxo-2-[4-(5-trifluoromethyl-pyridin-2-yl)-piperazin-1-yl]-7,8-dihydro-pyrido[2,3-d]pyrimidine-6-carbonitrile]
water solubility of salts [1]: enhanced water solubility

CC(=O)c1c(C)c2cnc(Nc3ccc(N4CCNCC4)cn3)nc2n(C2CCCC2)c1=O [PD-0332991, Palbociclib, reference compound]
PARP cleavage (~89 kDa cleaved polypeptide) [3]: not observed | IC50 (CDK6): 15 nM | sub-G1 population (apoptosis) [5]: absent | IC50 (CDK4): […]

N#Cc1cc2cnc(Nc3ccc(N4CCOCC4)cn3)nc2n(C2CCCC2)c1=O [7u, 8-Cyclopentyl-2-(5-morpholin-4-yl-pyridin-2-ylamino)-7-oxo-7,8-dihydro-pyrido[2,3-d] pyrimidine-6-carbonitrile]
water solubility of salts [1]: enhanced water solubility

N#Cc1cc2cnc(Nc3ccc(N4CCOCC4)cc3)nc2n(C2CCCC2)c1=O [7t, 8-Cyclopentyl-2-(4-morpholin-4-yl-phenylamino)-7-oxo-7,8-dihydro-pyrido[2,3-d]pyrimidine-6-carbonitrile]
water solubility of salts [1]: enhanced water solubility
